Experimental data published in article PMC11003968, “Identification of small molecules affecting the interaction between human hemoglobin and Staphylococcus aureus IsdB hemophore” (Scientific Reports, 2024).
In brackets after ≈: the same amount, converted by molar mass. Entries after “also recorded” stand apart in the source; their conditions may differ. Like-named read-outs stand apart in the source and are kept apart here. Where a SMILES comes first, the peptide text is derived from it. The star is where a group is joined. Boc = CC(C)(C)OC(=O)*

Assays:
oxyHb = oxyHb (Homo sapiens, UniProt P68871+P69905); experiment: Effect of compounds on the oxyHb absorption spectrum (oxidation of oxyHb to metHb); assay type: biochemical; conditions: 1 mM compound, 10 µM oxyHb, 4 °C
Description: Absorption spectra of the commercial compounds alone or in the presence of oxyHb were recorded with a microplate reader (TECAN Spark® 10 M) in a 384-well, UV-transparent microplate (Greiner UV-STAR® plate—781801). The compounds were diluted in binding buffer to a 2 mM concentration, and the pH of the solutions was adjusted in the range 6.5–7.5. Compounds were then tested at 1 mM concentration to assess for any absorbance around 450 nm that might interfere with the immunoassay. The effect of compounds on the oxyHb spectrum was assessed under the same conditions in the presence of 10 µM oxyHb. […] All the incubation steps were performed at 4 °C, as in the immunoassay. Spectra were subtracted from the contribution of the blank and the compound.
Absorption spectra of the compounds in solution were collected between 350 and 700 nm to exclude any interference with the determination of Hb oxidation (vide infra) and with the absorbance measurement at 450 nm of the immunoassay (Fig. S4). The absorption spectra of Hb solutions were collected in the Q bands region, between 450 and 650 nm, and compounds were added at a final concentration of 1 mM and incubated for 2 h at 4 °C, before the acquisition of the final spectrum (Fig. S5). These Hb absorption bands are sensitive to the redox status of the protein and thus allowed to ascertain whether the tested compounds interfere with the analysis by accelerating the oxidation of oxyHb to metHb, which in turn is susceptible to heme extraction by IsdB, thus introducing an artifact in the assay.

Compound solubilisation = assay type: physicochemical; conditions: for solubility (in words): solvent as stated in the sentence
Description: The commercial compounds were solubilized in aqueous solutions to reach a 50 mM concentration, taking advantage of the pH and concentration-solubility profile estimated by Chemicalize (https://chemicalize.com/ developed by ChemAxon). When the molecules resulted partially or completely insoluble, the pH was adjusted based on their estimated pH-solubility profiles using either HCl or NaOH concentrated stocks. A cycle of sonication with an ultrasonic bath (Bormac CE-5700, 41300303) was performed for those compounds that resulted insoluble after pH adjustment. If sonication was insufficient, compounds were also heated in a thermoblock at 60 °C for ten minutes. For the compounds that were still not soluble, D6-DMSO was added. For some compounds, complete solubilization required to decrease the concentration of the stock solution. In Table 2 are reported the compounds that required dilution and/or addition of DMSO for solubilization.
(§1) The in-house synthesized compounds were solubilized at 100 mM concentration in D6-DMSO. We indicated with an asterisk (*) the in-house synthesized compounds to distinguish them from the commercial ones. […]. Molecules that resulted partially or completely insoluble were subjected to the same procedure followed for the commercial molecules, except for pH adjustments. The compounds that were highly insoluble were produced as TRIS salts.

[1] = Stability of dissolved compound by NMR and liquid chromatography; assay type: physicochemical
Description: as §1

[2] = biological target: T1, IsdB:Hb complex (Y165A IsdB, oxyHb) (Homo sapiens, UniProt P68871+P69905); experiment: IsdB-based immunoassay for IsdB:Hb complex formation (screening of potential inhibitors); assay type: binding, Staphylococcus aureus IsdB; human Hb; conditions: 30 µM oxyHb; for average percent of Hb bound to IsdB: commercial compounds at 1 mM, relative to negative control; for percentage of IsdB-bound Hb: in-house synthesized compounds at 1 mM
T1 construct: made in house
Description: Commercial and synthesized compounds were tested at 1 mM concentration.
Figure 6 Screening of the in silico identified compounds by the IsdB-based immunoassay. […] The lines at 100% and 50%, drawn as reference, were calculated from the absorbance signal at 450 nm measured on the negative control well (i.e. oxyHb incubated without the addition of compounds). Each measurement is the average of at least 2 replicates.
Each measurement is the average of at least two replicates. […] Color code indicates derivatives from a common parent compound indicated with the asterisk.

HbCO = HbCO (Homo sapiens, UniProt P68871+P69905); experiment: STD-NMR binding to Hb; conditions: 20 µM Hb (heme), 25 °C; for quality of the peaks in the STD spectrum: 1 mM commercial compound; for binding to HbCO by STD-NMR (peaks in STD spectra): 1 mM compound
[3] = 50% D6-DMSO final concentration

NC(=O)C1CCN(CC(O)COc2ccc(OCC(O)CN3CCC(C(N)=O)CC3)cc2)CC1 (centres unmarked) [Compound C12]
oxidation of Hb upon a 2-h incubation (oxyHb): small effects

NNC(=O)C(=NNc1ccccc1C(=O)NN)C(=O)NN [Compound C17]
Stock H2O (Compound solubilisation; [3]): 25 (50% D6-DMSO final concentration) mM | oxidation of Hb upon a 2-h incubation (oxyHb): small effects

CC(C)CC(NC(=O)C(Cc1ccccc1)NC(=O)CNC(=O)CNC(=O)OC(C)(C)C)C(=O)NC(CCCN=C(N)N)C(=O)O (centres unmarked) [Compound C28] (Boc-GGFLR-OH; configuration not given here)
Stock H2O (Compound solubilisation; [3]): 25 (50% D6-DMSO final concentration) mM | oxidation of Hb upon a 2-h incubation (oxyHb): small effects

NC(=O)Cn1cc(NC(=O)NC2CCC(O)CC2)cn1 (centres unmarked) [Compound C34]
Stock H2O (Compound solubilisation): 33 (50% D6-DMSO final concentration) mM

O=C(CSc1nnc(-c2c[nH]c3ccccc23)o1)Nc1ccc(C(=O)O)cc1 [Compound C35]
solubility (Compound solubilisation; aqueous buffer, kinetic from dmso stock, 50 mM HEPES buffer, pH 7.6, diluted from 100 mM DMSO stock, read-out: concentration at which the compound was soluble): 500 µM (≈ 197 µg/mL) | solubility (in words) (Compound solubilisation): poorly soluble in water | stability by NMR and liquid chromatography ([1]; dissolved in D6-DMSO): stable | stability in solution ([1]; dissolved in alkaline aqueous solution): underwent a rearrangement

Cc1[nH]ncc1C(=O)NCc1cc(OC2CCNC2)ccn1 (centres unmarked) [Compound C41]
average percent of Hb bound to IsdB [2]: lower than 55% | quality of the peaks in the STD spectrum (HbCO): very weak peaks | binding to HbCO by STD-NMR (peaks in STD spectra) (HbCO): gave peaks in the STD spectra; also recorded: only a methyl group was binding to Hb

NC(=O)NC(=O)CCCSc1nnc(N)s1 [Compound C44]
Stock H2O (Compound solubilisation; [3]): 44 (50% D6-DMSO final concentration) mM | solubility (in words) (Compound solubilisation): solubility issues | solubility (in words) (Compound solubilisation; listed as C44*): difficult to dissolve in DMSO | average percent of Hb bound to IsdB [2]: lower than 55% | percentage of IsdB-bound Hb [2]: above 60% | quality of the peaks in the STD spectrum (HbCO): very weak peaks | binding to HbCO by STD-NMR (peaks in STD spectra) (HbCO): gave peaks in the STD spectra

NC(=O)COc1ccc(CNC2CCCN(c3cccnn3)C2)cc1 (centres unmarked) [Compound C50]
average percent of Hb bound to IsdB [2]: lower than 55% | binding to HbCO by STD-NMR (peaks in STD spectra) (HbCO): no peaks were observed

COC(=O)c1[nH]n(-c2ccc(C(=O)O)cc2)c(=O)c1CCO [Compound C53]
solubility (in words) (Compound solubilisation): solubility issues | average percent of Hb bound to IsdB [2]: lower than 55% | percentage of IsdB-bound Hb [2]: above 60% | quality of the peaks in the STD spectrum (HbCO): very weak peaks | binding to HbCO by STD-NMR (peaks in STD spectra) (HbCO): gave peaks in the STD spectra | binding to HbCO by STD-NMR (peaks in STD spectra) (HbCO; listed as C53*): confirmed binding to HbCO

CC(C)(Sc1nnc(-c2c[nH]c3ccccc23)o1)C(=O)Nc1ccc(C(=O)O)cc1 [Compound C59]
solubility (in words) (Compound solubilisation): poorly soluble

Cn1cc(-c2nnc(SCC(=O)Nc3ccc(C(=O)O)cc3)o2)c2ccccc21 [Compound C61]
solubility (in words) (Compound solubilisation): poorly soluble

O=C(CSc1nnc(-c2c[nH]c3ncccc23)o1)Nc1ccc(C(=O)O)cc1 [Compound C63]
solubility (in words) (Compound solubilisation): poorly soluble

O=C(O)Cn1cc(-c2nnc(SCC(=O)Nc3ccc(C(=O)O)cc3)o2)c2ccccc21 [Compound C65]
solubility (in words) (Compound solubilisation): poorly soluble
